# Laboratory results: patent US20260297094A1, “Tetracyclic Compounds as SMARCA2 and/or SMARCA4 Degraders” (Aurigene Oncology Limited, priority 2023, published 2026)
# Key:
# Format in all cases: cell-based
# SMARCA2 = target: T1, SMARCA2 (Homo sapiens, UniProt P51531); test: SMARCA2 degradation in MV-4-11 cells by Western blot; details: MV4-11, 16 h, at 100 nM, vs DMSO, read-out: Percent degradation SMARCA2
# T1 construct: endogenous in cells; host or cells: MV-4-11 (CRL-9591)
# Experimental: (§1) Example-P3: Determination of SMARCA2 and SMARCA4 Degradation in MV-4-11 Cells by Western Blot
# (§2) MV-4-11 (CRL-9591™) cells were plated in 6 well plates using complete Iscove's Modified Dulbecco's Medium. On the third day, compounds of present invention were added to cells from 10 mM stocks made in DMSO (Sigma Cat no. D2650). Each concentration of compound was tested with DMSO not exceeding final percentage of 0.1 in the cells. Cells were incubated with the compound for 16 hours followed by harvesting with 1×RIPA lysis buffer (Thermo Fischer, catalogue number #89900) containing protease inhibitor cocktail (Sigma catalogue number #P-8340). Equal amount of protein was loaded on SDS PAGE gel for electrophoresis. Western blot was carried out for detection of either SMARCA2 (Cell signalling technologies, catalogue number #11966) or SMARCA4 antibody (Cell signalling technologies, catalogue number #52251). Beta-Tubulin antibody (Cell signalling technologies, catalogue number #86298) was used as loading control. Percentage of SMARCA2 or SMARCA4 degradation was calculated using formula % Degradation=100−(normalized band intensity in treated sample/normalized band intensity in DMSO sample)*100. Here, “ND” refers to Not determined.
# MV-4-11 cells = test: Anti proliferative activity in MV-4-11 cells by Cell Titer Glo (Promega) assay; details: Homo sapiens, MV4-11, 72 h, 3 days, CellTiter-Glo
# Method in brief: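 MV-4-11 cells in complete DMEM were exposed to compound for 3 days in triplicate, final DMSO ≤0.3%. Viability was read by CellTiter-Glo ATP luminescence, and % inhibition was taken relative to the DMSO control. EC50 was derived from concentration-response curves.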
# SK-MEL-5 cells = test: Anti proliferative activity in SK-MEL-5 cells by Cell Titer Glo (Promega) assay; details: Homo sapiens, retreatment on Day 4, terminated on day 8, CellTiter-Glo
# Method in brief: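 SK-MEL-5 cells treated with 9-point 3-fold dilution series, re-dosed on day 4, read on day 8 by CellTiter-Glo luminescence. EC50 derived from percent proliferation inhibition versus concentration.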
# SMARCA4 = target: T2, SMARCA4 (Homo sapiens, UniProt P51532); test: SMARCA4 degradation in MV-4-11 cells by Western blot; details: MV4-11, at 100 nM, 16 hours, vs DMSO, read-out: Percent degradation SMARCA4
# T2 construct: endogenous in cells; host or cells: MV-4-11 (CRL-9591)
# T2 sequence (P51532 whole entry): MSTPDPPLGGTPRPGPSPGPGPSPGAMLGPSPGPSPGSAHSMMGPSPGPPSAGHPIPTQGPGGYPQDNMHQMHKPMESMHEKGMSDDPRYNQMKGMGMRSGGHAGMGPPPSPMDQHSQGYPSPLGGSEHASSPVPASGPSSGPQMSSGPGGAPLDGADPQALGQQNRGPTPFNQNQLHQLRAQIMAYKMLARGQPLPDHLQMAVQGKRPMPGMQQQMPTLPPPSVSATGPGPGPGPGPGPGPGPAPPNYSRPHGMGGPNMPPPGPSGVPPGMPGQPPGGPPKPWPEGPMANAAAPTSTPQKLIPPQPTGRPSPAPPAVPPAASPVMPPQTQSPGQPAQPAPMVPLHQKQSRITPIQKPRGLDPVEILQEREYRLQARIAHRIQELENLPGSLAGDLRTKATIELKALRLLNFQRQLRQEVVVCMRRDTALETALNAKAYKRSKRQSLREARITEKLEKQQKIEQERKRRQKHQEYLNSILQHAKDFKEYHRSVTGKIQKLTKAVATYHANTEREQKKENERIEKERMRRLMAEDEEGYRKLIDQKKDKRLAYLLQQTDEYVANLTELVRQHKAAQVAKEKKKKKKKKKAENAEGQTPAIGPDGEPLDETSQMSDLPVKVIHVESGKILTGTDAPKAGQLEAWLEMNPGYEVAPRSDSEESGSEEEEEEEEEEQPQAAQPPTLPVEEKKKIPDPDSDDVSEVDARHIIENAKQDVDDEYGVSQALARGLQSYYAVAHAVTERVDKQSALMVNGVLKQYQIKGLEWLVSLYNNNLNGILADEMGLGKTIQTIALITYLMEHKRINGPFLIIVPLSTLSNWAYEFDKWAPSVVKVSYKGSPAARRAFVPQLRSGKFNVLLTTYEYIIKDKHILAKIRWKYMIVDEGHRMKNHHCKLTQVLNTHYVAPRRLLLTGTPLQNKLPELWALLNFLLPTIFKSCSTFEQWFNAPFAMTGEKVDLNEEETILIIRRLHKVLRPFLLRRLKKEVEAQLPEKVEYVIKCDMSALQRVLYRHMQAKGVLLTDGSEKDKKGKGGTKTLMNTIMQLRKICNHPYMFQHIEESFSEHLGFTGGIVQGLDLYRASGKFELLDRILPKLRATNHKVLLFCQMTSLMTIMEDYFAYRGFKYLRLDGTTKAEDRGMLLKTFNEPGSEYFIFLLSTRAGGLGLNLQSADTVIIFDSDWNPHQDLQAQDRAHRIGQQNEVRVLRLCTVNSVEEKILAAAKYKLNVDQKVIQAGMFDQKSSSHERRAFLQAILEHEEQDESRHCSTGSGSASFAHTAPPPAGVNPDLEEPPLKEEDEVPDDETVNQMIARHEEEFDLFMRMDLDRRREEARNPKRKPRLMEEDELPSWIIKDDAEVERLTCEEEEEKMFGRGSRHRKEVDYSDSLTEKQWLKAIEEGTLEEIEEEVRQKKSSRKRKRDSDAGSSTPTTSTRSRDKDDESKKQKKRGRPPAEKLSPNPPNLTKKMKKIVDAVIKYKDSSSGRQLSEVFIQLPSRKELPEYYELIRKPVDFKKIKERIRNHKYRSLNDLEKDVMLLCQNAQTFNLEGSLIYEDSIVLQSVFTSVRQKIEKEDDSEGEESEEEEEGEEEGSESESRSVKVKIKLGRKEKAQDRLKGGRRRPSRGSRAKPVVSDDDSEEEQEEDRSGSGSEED
# Experimental: as §1, §2
# T1 sequence (P51531 whole entry): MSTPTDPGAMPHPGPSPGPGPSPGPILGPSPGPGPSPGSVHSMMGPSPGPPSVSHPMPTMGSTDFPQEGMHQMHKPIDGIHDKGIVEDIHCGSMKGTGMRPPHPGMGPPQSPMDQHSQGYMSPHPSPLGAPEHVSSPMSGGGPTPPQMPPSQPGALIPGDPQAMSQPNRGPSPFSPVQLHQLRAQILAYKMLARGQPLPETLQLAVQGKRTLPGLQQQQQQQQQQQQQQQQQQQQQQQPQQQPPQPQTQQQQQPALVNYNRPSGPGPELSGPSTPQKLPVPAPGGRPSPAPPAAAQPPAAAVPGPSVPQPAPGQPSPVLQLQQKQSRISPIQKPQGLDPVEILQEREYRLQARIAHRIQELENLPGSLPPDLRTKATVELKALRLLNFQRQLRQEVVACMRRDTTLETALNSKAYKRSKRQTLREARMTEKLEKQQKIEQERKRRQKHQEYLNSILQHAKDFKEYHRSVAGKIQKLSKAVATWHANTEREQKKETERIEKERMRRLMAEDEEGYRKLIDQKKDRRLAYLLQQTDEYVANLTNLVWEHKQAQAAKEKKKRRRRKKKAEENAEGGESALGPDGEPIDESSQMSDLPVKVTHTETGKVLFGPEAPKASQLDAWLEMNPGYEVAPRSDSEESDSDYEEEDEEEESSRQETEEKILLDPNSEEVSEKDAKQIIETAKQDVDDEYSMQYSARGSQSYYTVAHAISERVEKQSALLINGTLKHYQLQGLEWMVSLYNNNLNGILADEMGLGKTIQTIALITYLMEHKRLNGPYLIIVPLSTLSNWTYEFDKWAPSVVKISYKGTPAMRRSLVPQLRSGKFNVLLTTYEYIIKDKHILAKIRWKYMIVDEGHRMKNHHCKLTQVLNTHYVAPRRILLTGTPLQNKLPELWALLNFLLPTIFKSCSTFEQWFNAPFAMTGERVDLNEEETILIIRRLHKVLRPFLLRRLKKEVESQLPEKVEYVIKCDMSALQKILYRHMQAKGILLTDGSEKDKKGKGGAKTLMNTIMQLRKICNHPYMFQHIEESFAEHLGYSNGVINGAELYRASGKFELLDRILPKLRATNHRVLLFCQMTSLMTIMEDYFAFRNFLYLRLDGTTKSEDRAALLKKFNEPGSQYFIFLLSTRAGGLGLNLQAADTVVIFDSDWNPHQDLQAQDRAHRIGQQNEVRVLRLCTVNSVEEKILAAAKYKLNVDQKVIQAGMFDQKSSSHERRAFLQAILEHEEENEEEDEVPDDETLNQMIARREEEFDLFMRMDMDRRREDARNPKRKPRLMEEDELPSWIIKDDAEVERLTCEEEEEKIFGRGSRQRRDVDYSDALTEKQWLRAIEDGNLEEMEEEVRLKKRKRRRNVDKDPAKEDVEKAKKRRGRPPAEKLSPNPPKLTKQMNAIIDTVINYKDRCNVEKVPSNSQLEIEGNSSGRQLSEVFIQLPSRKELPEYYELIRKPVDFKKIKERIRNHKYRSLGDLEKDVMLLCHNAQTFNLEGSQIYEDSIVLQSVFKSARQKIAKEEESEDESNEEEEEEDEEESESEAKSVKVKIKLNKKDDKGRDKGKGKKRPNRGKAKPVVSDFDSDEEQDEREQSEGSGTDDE
smiles,measurement,setting,value
"Cn1c2cc(N3CCC(N4CCC(c5ccc(NC6CCC(=O)NC6=O)cc5F)CC4)CC3)ccc2n2c3cccc(Cl)c3c(=O)nc12 (stereo not shown) [Compound 36, 3-((4-(1′-(4-chloro-7-methyl-5-oxo-5,7-dihydrobenzo[4,5]imidazo[1,2-a]quinazolin-9-yl)-[1,4′-bipiperidin]-4-yl)-3-fluorophenyl)amino)piperidine-2,6-dione]",inhibition at 0.1 µM,SMARCA2,99%
same,EC50,MV-4-11 cells,> 100 nM
same,EC50,SK-MEL-5 cells,< 10 nM
same,inhibition at 0.1 µM,SMARCA4,97%
